ChEMBL document CHEMBL1121683, “Novel synthesis of (S)-1-[5-(benzoylamino)-1,4-dioxo-6-phenylhexyl]-L-proline and analogues: potent angiotensin converting enzyme inhibitors” (J Med Chem, 1981)

Key:
[1] = tested on: Rattus norvegicus; assay: Maximum effect of 30 mg/kg administered orally on mean aortic blood pressure in the conscious renal hypertensive rat; format: functional, Artery; settings: route oral
[2] = tested on: Rattus norvegicus; assay: Change in mean aortic blood pressure in the conscious renal hypertensive rat after oral administration of 30 mg/kg; format: functional, Artery
[3] = tested on: Rattus norvegicus; assay: Time required after administration of 30 mg/kg of compound po, for the AI response to return to 70% of the pretreatment control response; format: functional
[4] = tested on: Rattus norvegicus; assay: Maximum inhibition of the angiotensin I challenge at 30mg/kg, po in conscious, normotensive rats; format: functional
[5] = tested on: Rattus norvegicus; assay: Time required after administration of 3 mg/kg of compound iv, for the AI response to return to 70% of the pretreatment control response; format: functional
[6] = tested on: Rattus norvegicus; assay: Maximum inhibition of the angiotensin I challenge at 3 mg/kg, iv, in conscious, normotensive rats; format: functional
[7] = tested on: Rattus norvegicus; assay: Change in mean aortic blood pressure in the conscious renal hypertensive rat after oral administration of 3 mg/kg; format: functional, Artery
[8] = tested on: Rattus norvegicus; assay: Maximum effect of 3 mg/kg of compound administered orally on mean aortic blood pressure in the conscious renal hypertensive rat; format: functional, Artery; settings: route oral
[9] = target: Angiotensin-converting enzyme (Homo sapiens, UniProt P12821); assay: Concentration required to inhibit the activity of Angiotensin I converting enzyme by 50%; format: protein assay, Cavia porcellus
[10] = tested on: Rattus norvegicus; assay: Maximum inhibition of the angiotensin I challenge at 0.3 mg/kg, po, in conscious, normotensive rats; format: functional
[11] = tested on: Rattus norvegicus; assay: Maximum inhibition of the angiotensin I challenge at 0.03 mg/kg, po, in conscious, normotensive rats; format: functional
[12] = tested on: Rattus norvegicus; assay: Time required after administration of 0.03 mg/kg of compound po, for the AI response to return to 70% of the pretreatment control response; format: functional
[13] = tested on: Rattus norvegicus; assay: Maximum effect of 0.3 mg/kg of compound administered orally on mean aortic blood pressure in the conscious renal hypertensive rat; format: functional, Artery; settings: route oral
[14] = tested on: Rattus norvegicus; assay: Time required after administration of 0.3 mg/kg of compound po, for the AI response to return to 70% of the pretreatment control response; format: functional
[15] = tested on: Rattus norvegicus; assay: Maximum inhibition of the angiotensin I challenge at 3 mg/kg, po, in conscious, normotensive rats; format: functional
[16] = tested on: Rattus norvegicus; assay: Change in mean aortic blood pressure in the conscious renal hypertensive rat after oral administration of 0.3 mg/kg; format: functional, Artery
[17] = tested on: Rattus norvegicus; assay: Time required after administration of 3 mg/kg of compound po, for the AI response to return to 70% of the pretreatment control response; format: functional

Sequence of Angiotensin-converting enzyme (P12821 whole entry): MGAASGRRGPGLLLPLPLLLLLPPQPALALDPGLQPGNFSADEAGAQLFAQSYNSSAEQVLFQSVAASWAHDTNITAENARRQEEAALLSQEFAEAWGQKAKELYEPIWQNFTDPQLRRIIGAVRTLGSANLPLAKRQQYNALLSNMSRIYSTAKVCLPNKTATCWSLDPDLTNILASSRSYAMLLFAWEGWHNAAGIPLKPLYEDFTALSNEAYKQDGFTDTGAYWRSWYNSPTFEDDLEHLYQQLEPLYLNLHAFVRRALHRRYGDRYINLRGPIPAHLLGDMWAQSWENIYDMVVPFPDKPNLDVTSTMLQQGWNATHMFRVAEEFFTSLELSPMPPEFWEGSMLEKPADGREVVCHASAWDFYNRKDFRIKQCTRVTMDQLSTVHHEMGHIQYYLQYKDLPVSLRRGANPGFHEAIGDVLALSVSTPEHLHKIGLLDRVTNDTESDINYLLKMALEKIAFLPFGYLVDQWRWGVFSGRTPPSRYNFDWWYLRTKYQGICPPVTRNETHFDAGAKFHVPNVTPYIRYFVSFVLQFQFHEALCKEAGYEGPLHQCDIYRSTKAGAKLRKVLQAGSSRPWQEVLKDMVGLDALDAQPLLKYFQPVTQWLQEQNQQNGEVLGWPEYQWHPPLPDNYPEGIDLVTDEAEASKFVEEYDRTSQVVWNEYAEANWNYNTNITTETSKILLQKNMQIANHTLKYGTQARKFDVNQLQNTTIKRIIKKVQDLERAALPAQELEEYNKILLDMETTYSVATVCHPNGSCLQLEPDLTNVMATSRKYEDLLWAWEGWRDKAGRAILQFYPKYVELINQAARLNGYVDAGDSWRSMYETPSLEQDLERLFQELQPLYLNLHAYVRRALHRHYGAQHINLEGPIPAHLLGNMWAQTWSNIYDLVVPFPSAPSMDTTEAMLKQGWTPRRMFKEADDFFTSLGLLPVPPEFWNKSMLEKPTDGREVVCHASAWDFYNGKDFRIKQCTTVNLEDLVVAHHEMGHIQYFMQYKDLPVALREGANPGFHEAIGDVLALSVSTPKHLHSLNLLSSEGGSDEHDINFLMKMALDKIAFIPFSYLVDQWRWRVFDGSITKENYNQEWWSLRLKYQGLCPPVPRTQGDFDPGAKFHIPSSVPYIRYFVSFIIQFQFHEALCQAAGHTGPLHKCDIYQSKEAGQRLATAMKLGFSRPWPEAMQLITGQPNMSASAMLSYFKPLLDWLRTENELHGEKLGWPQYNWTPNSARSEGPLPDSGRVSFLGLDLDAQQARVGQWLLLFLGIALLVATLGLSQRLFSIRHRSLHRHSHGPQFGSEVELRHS

SMILES | Mean aortic blood pressure at maximum effect [1] [mmHg] | Change [2] [mmHg] | further results
O=C(NC(Cc1cccnc1)C(=O)CCC(=O)N1CCC[C@H]1C(=O)OCc1ccccc1)c1ccccc1 (some centres undefined) | 159 | -32 | –
O=C(NC(Cc1ccccc1)C(=O)CCC(=O)N1CCC[C@H]1C(=O)O)c1ccco1 (some centres undefined) | 184 | -1 | AI recovery time [3]: 84 min; Max inhibition [4]: 32%; AI recovery time [5]: 52 min; Max inhibition [6]: 84%
O=C(NC(Cc1ccccc1)C(=O)CCC(=O)N1CC(O)C[C@H]1C(=O)O)c1ccccc1 (some centres undefined) | 168 | -20 | –
O=C(NC(Cc1ccc(OCc2ccccc2)cc1)C(=O)CCC(=O)N1CCC[C@H]1C(=O)O)c1ccccc1 (some centres undefined) | 195 | -5 | –
CC(=O)NC(Cc1ccccc1)C(=O)CCC(=O)N1CCC[C@H]1C(=O)O (some centres undefined) | 176 | -26 | –
Cc1ccccc1C(=O)NC(Cc1ccccc1)C(=O)CCC(=O)N1CCC[C@H]1C(=O)O (some centres undefined) | 188 | -15 | –
O=C(NC(Cc1ccc(O)cc1)C(=O)CCC(=O)N1CCC[C@H]1C(=O)O)c1ccccc1 (some centres undefined) | 172 | -23 | AI recovery time [3]: 24 min; Max inhibition [4]: 46%; AI recovery time [5]: 34 min; Max inhibition [6]: 82%
COc1ccc(CC(NC(=O)c2ccccc2)C(=O)CCC(=O)N2CCC[C@H]2C(=O)O)cc1OC (some centres undefined) | 174 | -5 | AI recovery time [3]: 5 min; Max inhibition [4]: 33%; AI recovery time [5]: 24 min; Max inhibition [6]: 74%
O=C(NC(Cc1cccnc1)C(=O)CCC(=O)N1CCC[C@H]1C(=O)O)c1ccccc1 (some centres undefined) | 184 | -20 | –
Cc1ccccc1C(=O)NC(Cc1ccccc1)C(=O)CCC(=O)N1CCC[C@H]1C(=O)OCc1ccccc1 (some centres undefined) | 175 | -20 | –
O=C(NC(Cc1ccccc1)C(=O)CCC(=O)N1CCC[C@H]1C(=O)O)OCc1ccccc1 (some centres undefined) | 175 | -22 | –
COC(=O)[C@@H]1CCCN1C(=O)CCC(=O)C(Cc1ccccc1)NC(=O)c1ccccc1 (some centres undefined) | 142 | -11 | Change [7]: -34 mmHg; Max effect [8]: 165 mmHg
O=C(NC(Cc1ccccc1)C(=O)CCC(=O)N1CCCC1)c1ccccc1 (centres undefined) | – | – | IC50 [9]: Not Active
O=C(CCC(=O)N1CCC[C@H]1C(=O)O)C(Cc1ccccc1)NC(=O)C1CCCO1 (some centres undefined) | 163 | -23 | AI recovery time [3]: 10 min; Max inhibition [4]: 24%; Max inhibition [6]: 64%
O=C(CCC(=O)C(Cc1ccccc1)NC(=O)c1ccccc1)NC(Cc1ccccc1)C(=O)OCc1ccccc1 (centres undefined) | 182 | -5 | –
O=C(N[C@@H](Cc1ccccc1)C(=O)CCC(=O)N1CCC[C@H]1C(=O)O)c1ccccc1 | 178 | -12 | AI recovery time [3]: 49 min; Max inhibition [4]: 48%; AI recovery time [5]: 34 min; Max inhibition [6]: 57%
C[C@H](CS)C(=O)N1CCC[C@H]1C(=O)O [CAPTOPRIL] | 85 | -101 | Change [7]: -93 mmHg; Max effect [8]: 99 mmHg; Max inhibition [10]: 69%; Max inhibition [11]: 16%; AI recovery time [12]: 80 min; Max effect [13]: 170 mmHg; AI recovery time [14]: 170 min; Max inhibition [15]: 95%; Change [16]: -19 mmHg; AI recovery time [17]: >240 min
